From paper PMC8073686, “Characterization of Subtype Selective Cannabinoid CB2 Receptor Agonists as Potential Anti-Inflammatory Agents” (Pharmaceuticals, 2021)

Experiments:
[1] = tested on: IL-2 production in Jurkat cells; test: PHA/PMA-induced IL-2 production in Jurkat cells (ELISA of culture medium); type: cell-based, human; settings: 10 μM, 24 h
Method: (§1) Activation of CB2 is known to have anti-inflammatory effects. There are some studies reporting that CB2 agonists decrease cytokine production in immune cells. We also reported that the cannabinoid receptor agonist CP55,940 and ABK5 inhibit cytokine production in the human T cell lines Jurkat and MOLT-4 [24]. Since ABK5-1 and 5-2 were confirmed to be CB2-subtype selective agonists, we were interested to determine whether these compounds also have anti-inflammatory effects. Note, although ABK5-6 had marginally better binding affinity to CB2, it bound to CB1 very, very weakly (i.e., micromolar range). Therefore ABK5-6 was not selected for further evaluations. […] To test if these mRNA changes are reflected in the protein levels of cytokines, the IL-2 and TNF-α concentration in the cell culture medium were measured by ELISA. […]
(§2) Figure 4 Effect of ABK5-1 and ABK5-2 on phytohemagglutinin (PHA)/phorbol 12-myristate 13-acetate (PMA)-induced cytokine production in T cells. […] IL-2 and TNF-α mRNA levels were determined by real-time PCR (RT-PCR) after ABK5-1 treatment and (A) 3 h and (B) 24 h of PHA/PMA (phytohemagglutinin/phorbol 12-myristate 13-acetate) stimulation. […] IL-2 and TNF-α mRNA were also examined after ABK5-2 treatment and (E) 3 h and (F) 24 h of stimulation, and protein levels of (G) IL-2 and (H) TNF-α were measured after 24 h stimulation. […]

[2] = biological target: T1, CB2 (Homo sapiens, UniProt P34972); test: Competitive [3H]CP55,940 radioligand binding, CB2-transfected HEK293T cell membrane; settings: competition with [3H]CP55,940; mean ± S.D.
T1 construct: expressed in transfected cells; host or cells: HEK293T cells, calcium phosphate transfection, membrane preparation
Excerpt: To evaluate binding affinity of ABK5 analogs that have a difference in the position of substituents in the N-phenyl ring (Figure 1), we performed competitive radiolabeled ligand binding assays using cell membrane from HEK293T cells transfected with human CB2 receptors. […] ABK5-1, ABK5-2, and ABK5-6 dose-dependently competed with [^3H]CP55,940 and decreased the specific binding of the radiolabeled agonist, which reflects the binding of test compounds to CB2. […] Therefore, ABK5-5 was not considered for further evaluation in this study. […] We also examined CB2 selectivity (versus CB1) of the three compounds by performing similar binding assays using membrane from CB1 expressing HEK293 cells instead of CB2 expressing cells. […] Therefore, ABK5-1 and 5-2 maintained the CB2 subtype selectivity of ABK5.
In the experiment, 1 × 10^6 HEK293T cells were seeded in a 10-cm cell culture dish and cultured for 24 h. Cells were transfected with CB1 or CB2 using the calcium phosphate method. Approximately one day after transfection, cells were harvested and centrifuged at 4 °C for 5 min at 500× g. The pellet was washed with phosphate buffered saline (PBS) twice and resuspended in PBS containing 1% protease-inhibitor cocktail (Sigma-Aldrich, St. Louis, MO, USA) consisting of 104 mM 4-(2-aminoethyl) benzene sulfonyl fluoride hydrochloride (AEBSF), 80 μM apronitin, 4 mM bestatin, 1.64 mM E-64, 2 mM leupeptin, 1.5 mM pepstatin A. Then the cells were subjected to nitrogen cavitation under 750 psi for 5 min using a Parr cell disruption bomb. The lysate was centrifuged at 500× g for 10 min at 4 °C and the supernatant was spun at 116,000× g for 45 min at 4 °C. The pellet, consisting of the cell membrane expressing CB1 or CB2, was resuspended in TME buffer solution (25 mM Tris-HCl, 5 mM MgCl2, and 1 mM EDTA, pH 7.4) with 7% (w/v) sucrose/TME buffer. The concentration of the membrane protein was determined by the Bradford assay (Bradford, 1976).
Membrane protein was mixed with 1 nM to 10 μM of the test compounds and 1 nM [^3H]CP55,940 (164.9 Ci/mmol; PerkinElmer life Sciences, Waltham, MA, USA), and TME buffer supplemented with 0.2% BSA was used to bring the total volume to 200 μL. [^3H]CP55,940 acts as tracer and agonists that bind the target receptor compete with [^3H]CP55,940. Samples were incubated for 1 h at 30 °C. Ten μM unlabeled CP55,940 was used to determine non-specific binding. […] A Beckman Coulter 6500 liquid scintillation counter was used to measure the radioactivity of the samples.
Results are presented as the mean ± standard deviation (S.D.). […] The Ki values in the ligand binding assay were calculated using the Prism software (GraphPad Software Inc., San Diego, CA, USA), using IC50 values obtained from non-linear regression fitted to the one-site binding model. […]

[3] = tested on: TNF-α production in Jurkat cells; test: PHA/PMA-induced TNF-α production in Jurkat cells (ELISA of culture medium); type: cell-based, human; settings: 10 μM, 24 h
Method: as §1, §2

T1 sequence (P34972 whole entry): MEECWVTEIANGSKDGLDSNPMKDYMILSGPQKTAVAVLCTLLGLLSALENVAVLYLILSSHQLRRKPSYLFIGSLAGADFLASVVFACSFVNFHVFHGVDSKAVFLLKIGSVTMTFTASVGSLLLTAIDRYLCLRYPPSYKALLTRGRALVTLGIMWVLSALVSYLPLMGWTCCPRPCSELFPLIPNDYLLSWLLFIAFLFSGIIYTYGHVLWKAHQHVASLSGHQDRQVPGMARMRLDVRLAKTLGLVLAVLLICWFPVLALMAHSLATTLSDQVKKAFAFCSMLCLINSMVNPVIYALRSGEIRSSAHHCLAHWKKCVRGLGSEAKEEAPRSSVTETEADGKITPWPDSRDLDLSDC

SMILES	decrease of IL-2 production (protein, ELISA) [1]	Ki [2] [µM]	decrease of TNF-α production (protein, ELISA) [3] [%]
CCOC(=O)c1ccccc1NC(=O)CN(c1c(C)cccc1C)S(=O)(=O)c1ccccc1 [ABK5-2]	about 42%	0.069 ± 0.019	~43
CCOC(=O)c1ccccc1NC(=O)CN(c1ccc(C)cc1C)S(=O)(=O)c1ccccc1 [ABK5-1]	about 42%	0.028 ± 0.005	~37
